Experimental findings from patent US20260184687A1, “DIHYDROINDENE DERIVATIVES AS MALT1 INHIBITORS” (C4X Discovery Limited, priority 2022, published 2026) are described below.

The assay has as its target T1, FL hMALT1 enzyme (Homo sapiens, UniProt Q9UDY8).
T1 sequence (Q9UDY8 1-824): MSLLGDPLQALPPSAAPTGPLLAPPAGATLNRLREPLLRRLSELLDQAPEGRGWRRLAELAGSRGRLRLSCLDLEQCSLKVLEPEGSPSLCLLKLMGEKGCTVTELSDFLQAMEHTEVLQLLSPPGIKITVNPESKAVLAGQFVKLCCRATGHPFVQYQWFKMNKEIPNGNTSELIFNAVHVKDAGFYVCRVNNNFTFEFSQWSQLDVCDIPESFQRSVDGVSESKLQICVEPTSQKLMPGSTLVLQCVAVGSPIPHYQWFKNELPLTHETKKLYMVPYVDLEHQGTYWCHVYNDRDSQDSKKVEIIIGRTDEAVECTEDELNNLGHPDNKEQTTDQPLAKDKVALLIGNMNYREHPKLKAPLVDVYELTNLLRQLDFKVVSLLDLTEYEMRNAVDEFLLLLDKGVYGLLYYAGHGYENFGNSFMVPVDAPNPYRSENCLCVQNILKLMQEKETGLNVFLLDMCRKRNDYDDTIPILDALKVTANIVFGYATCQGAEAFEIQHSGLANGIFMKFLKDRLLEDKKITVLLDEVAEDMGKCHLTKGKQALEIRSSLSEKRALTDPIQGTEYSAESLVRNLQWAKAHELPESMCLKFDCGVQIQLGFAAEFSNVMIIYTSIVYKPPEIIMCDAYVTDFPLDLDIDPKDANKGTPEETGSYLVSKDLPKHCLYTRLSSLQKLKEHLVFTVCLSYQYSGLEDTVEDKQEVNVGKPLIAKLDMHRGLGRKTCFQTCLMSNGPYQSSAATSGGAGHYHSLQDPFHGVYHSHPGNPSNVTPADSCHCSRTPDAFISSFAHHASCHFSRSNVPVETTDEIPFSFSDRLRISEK
The assay can be described thus: biochemical.
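Note: Cell-free protease assay: enzyme preincubated with compound 30 min at room temperature, then cleavage of fluorogenic Ac-LVSR-AMC substrate (100 µM) tracked by fluorescence (ex 360/em 460 nm).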

Description: MALT1 protease activity was assessed in vitro by measuring the cleavage of a fluorogenic tetrapeptide substrate.
For a higher sensitivity assay, commercially available FL hMALT1 enzyme (Abcam, 1-10 nM) was incubated with substrate (Ac-LVSR-AMC, 100 μM) in reaction buffer comprising 50 mM HEPES (pH7.0), 25 mM KCl, 0.1% (v/v) CHAPS, 1 mM TCEP and 0.7 M sodium citrate.
Test compounds dissolved in DMSO were dispensed into assay plates (384-well, black, shallow ProxiPlates). 7 μl enzyme solution was added and incubated at room temperature for 30 minutes to allow compound binding to occur. 2 μl substrate solution was then added and the fluorescence (excitation 360 nm, emission 460 nm) read every 15 minutes using a suitable plate reader. Final assay DMSO concentration was 1%. […] IC50 values were calculated using GraphPad Prism using a 4-parameter non-linear regression curve fit.

Take `CNC(=O)C12CC(C(=O)N(C)[C@@H](c3ccc(N[C@@H]4Cc5ccccc5C4(C)C)cn3)C(F)(F)F)(C1)C2` [Example 203, N^1—((S)-1-(5-(((R)-1,1-Dimethyl-2,3-dihydro-1H-inden-2-yl)amino)pyridin-2-yl)-2,2,2-trifluoroethyl)-N^1,N^3-dimethylbicyclo[1.1.1]pentane-1,3-dicarboxamide]: the IC50 stood at 0.12 µM.
`CN(C(=O)C1CCNCC1)[C@@H](c1ccc(NC2Cc3ccccc3C2(C)C)cn1)C(F)(F)F` (single isomer, unassigned) [Example 147] showed a 50% inhibitory concentration (IC50) of 0.26 µM.
In the case of `CN(C(=O)C1CN2CCC1CC2)[C@@H](c1ccc(NC2Cc3ccccc3C2(C)C)cn1)C(F)(F)F` (single isomer, unassigned) [Example 138], the IC50 was determined as 0.78 µM.
Consider `CN(C(=O)C1CCS(=O)(=O)CC1)[C@@H](c1ccc(NC2Cc3ccc(C(F)(F)F)cc3C2)cn1)C(F)(F)F` (single isomer, unassigned) [Example 256], for which the IC50 came to 1.1 µM.
`CN(C(=O)C1CCS(=O)(=O)CC1)[C@@H](c1ccc(NC2Cc3cc(F)c(Br)cc3C2)cn1)C(F)(F)F` (stereo partly drawn) [Example 310, N-((1S)-1-(5-((5-Bromo-6-fluoro-2,3-dihydro-1H-inden-2-yl)amino)pyridin-2-yl)-2,2,2-trifluoroethyl)-N-methyltetrahydro-2H-thiopyran-4-carboxamide 1,1-dioxide] came in with a concentration for half-maximal inhibition (IC50) of 0.43 µM.
To `CN(C(=O)CN1CCNC1=O)[C@@H](c1ccc(NC2Cc3ccccc3C2(C)C)cn1)C(F)(F)F` (single isomer, unassigned) [Example 245] belongs 0.13 µM; to `CN1CC(=O)NCC1C(=O)N(C)[C@@H](c1ccc(N[C@H]2Cc3ccccc3C2(C)C)cn1)C(F)(F)F` (single isomer, unassigned) [Example 202], 0.16 µM.
To `CCc1cccc2c1CC(Nc1ccc([C@H](N(C)C(=O)C3CCS(=O)(=O)CC3)C(F)(F)F)nc1)C2` (single isomer, unassigned) [Example 197] belongs 2.6 µM; to `CN(C(=O)C1CCN(S(C)(=O)=O)CC1)[C@@H](c1ccc(NC2Cc3ccc(Cl)c(Cl)c3C2)cn1)C(F)(F)F` (single isomer, unassigned) [Example 326], 0.24 µM; to `CN(C(=O)C1CCS(=O)(=O)CC1)[C@@H](c1ccc(NC2Cc3ccc(Cl)c(F)c3C2)nc1)C(F)(F)F` (single isomer, unassigned) [Example 331], 0.4 µM.
In the case of `CN(C(=O)C1CCS(=O)(=O)CC1)[C@@H](c1ccc(NC2Cc3cc(F)cc(F)c3C2)cn1)C(F)(F)F` (single isomer, unassigned) [Example 268] it was 3.4 µM; in that of `CC(=O)N1CCC12CC(C(=O)N(C)[C@@H](c1ccc(NC3Cc4ccccc4C3(C)C)cn1)C(F)(F)F)C2` (single isomer, unassigned) [Example 236], 0.21 µM; in that of `CN(C(=O)C1CCS(=O)(=O)CC1)[C@@H](c1ccc(NC2Cc3cccc(Br)c3C2)cn1)C(F)(F)F` (stereo partly drawn) [Example 237, N-((1S)-1-(5-((4-Bromo-2,3-dihydro-1H-inden-2-yl)amino)pyridin-2-yl)-2,2,2-trifluoroethyl)-N-methyltetrahydro-2H-thiopyran-4-carboxamide 1,1-dioxide], 0.11 µM.
On to `CN(C(=O)C1CCS(=O)(=O)CC1)[C@@H](c1ccc(NC2Cc3cccc(Cl)c3C2)cn1)C(F)(F)F` (single isomer, unassigned) [Example 264], for which the IC50 was determined as 1.2 µM.
In the case of `CN(C(=O)[C@H]1CCC(=O)NC1)[C@@H](c1ccc(NC2Cc3ccc(Cl)c(F)c3C2)nc1)C(F)(F)F` (single isomer, unassigned) [Example 388] it was 0.49 µM.
To `CN(C(=O)C1CC2(CCC(=O)N2)C1)[C@@H](c1ccc(NC2Cc3ccccc3C2(C)C)cn1)C(F)(F)F` (single isomer, unassigned) [Example 231] belongs 0.11 µM; to `CN(C(=O)C1CCS(=O)(=O)CC1)[C@@H](c1ccc(NC2Cc3c(F)ccc(Cl)c3C2)cn1)C(F)(F)F` (single isomer, unassigned) [Example 294], 2.4 µM.
As to `CN(C(=O)C1CCS(=O)(=O)CC1)[C@@H](c1ccc(N[C@@H]2Cc3ccc(Cl)cc3C2)cn1)C(F)(F)F` (single isomer, unassigned) [Example 200], the IC50 came to 1.1 µM.
For `CN(C(=O)[C@@H]1CNC(=O)C1)[C@@H](c1ccc(NC2Cc3ccc(Cl)c(C4CC4)c3C2)cn1)C(F)(F)F` (single isomer, unassigned) [Example 327], the IC50 came to 0.57 µM.
To `CN(C(=O)C1CN(C(=O)CO)C1)[C@@H](c1ccc(NC2Cc3ccc(Cl)c(Cl)c3C2)cn1)C(F)(F)F` (single isomer, unassigned) [Example 378] belongs 1.29 µM; to `CN(C(=O)C1CN2CCC1CC2)[C@@H](c1ccc(NC2Cc3ccccc3C2(C)C)nc1)C(F)(F)F` (single isomer, unassigned) [Example 123], 0.87 µM; to `CN(C(=O)C1COCC(=O)N1)[C@@H](c1ccc(NC2Cc3ccccc3C2(C)C)cn1)C(F)(F)F` (single isomer, unassigned) [Example 163], 0.19 µM.
In the case of `CN(C(=O)C1CCS(=O)(=O)CC1)[C@@H](c1ccc(NC2Cc3cccc(C(F)(F)F)c3C2)nc1)C(F)(F)F` (single isomer, unassigned) [Example 280] it was 0.86 µM; in that of `CN(C(=O)CN1CC(=O)NC1=O)[C@@H](c1ccc(NC2Cc3ccccc3C2(C)C)cn1)C(F)(F)F` (single isomer, unassigned) [Example 212], 0.13 µM; in that of `CN(C(=O)C1CC2(CCC(=O)N2)C1)[C@@H](c1ccc(NC2Cc3ccccc3C2(C)C)cn1)C(F)(F)F` (single isomer, unassigned) [Example 229], 0.14 µM.
To `CN(C(=O)C1CN(C(=O)C2CCO2)C1)[C@@H](c1ccc(NC2Cc3ccc(Cl)c(F)c3C2)cn1)C(F)(F)F` (single isomer, unassigned) [Example 387] belongs 0.31 µM; to `CNC(=O)N1CCC12CC(C(=O)N(C)[C@@H](c1ccc(NC3Cc4ccccc4C3(C)C)cn1)C(F)(F)F)C2` (single isomer, unassigned) [Example 239], 0.15 µM.
Regarding `CN(C(=O)CN1CCCS1(=O)=O)[C@@H](c1ccc(NC2Cc3ccc(Cl)c(F)c3C2)cn1)C(F)(F)F` (single isomer, unassigned) [Example 361], the concentration for half-maximal inhibition (IC50) is 7.2 µM.
As for `CN(C(=O)C1CN2CCC1CC2)[C@@H](c1ccc(NC2Cc3ccccc3C2(C)C)nc1)C(F)(F)F` (single isomer, unassigned) [Example 122], inhibition was half-maximal at 1.14 µM (IC50).
As to `CN(C(=O)[C@H]1CCC(=O)NC1)[C@@H](c1ccc(NC2Cc3ccc(Cl)c(F)c3C2)nc1)C(F)(F)F` (single isomer, unassigned) [Example 389], the IC50 came out at 0.04 µM.
To `CNC(=O)N1CCC12CC(C(=O)N(C)[C@@H](c1ccc(NC3Cc4ccccc4C3(C)C)cn1)C(F)(F)F)C2` (single isomer, unassigned) [Example 238] belongs 0.47 µM; to `CN1CCC(C(=O)N(C)[C@@H](c2ccc(NC3Cc4ccccc4C3(C)C)nc2)C(F)(F)F)CC1` (single isomer, unassigned) [Example 145], 0.23 µM.
Regarding `CN(C(=O)[C@@H]1CNC(=O)C1)[C@@H](c1ccc(N[C@H]2Cc3ccc(Cl)c(F)c3C2)cn1)C(F)(F)F` (single isomer, unassigned) [Example 316], the IC50 amounted to 1.1 µM.
To `CN(C(=O)C1CCS(=O)(=O)C1)[C@@H](c1ccc(NC2Cc3ccc(Cl)c(Cl)c3C2)cn1)C(F)(F)F` (single isomer, unassigned) [Example 357] belongs 0.69 µM; to `CN(C(=O)C1CC2(CCC(=O)N2)C1)[C@@H](c1ccc(NC2Cc3ccc(Cl)c(Cl)c3C2)cn1)C(F)(F)F` (single isomer, unassigned) [Example 340], 0.56 µM.
In the case of `CN(C(=O)C1CN(C(=O)C2COC2)C1)[C@@H](c1ccc(NC2Cc3ccc(Cl)c(F)c3C2)cn1)C(F)(F)F` (single isomer, unassigned) [Example 370] it was 1.37 µM.
To `CN(C(=O)C1CC2(CCN2)C1)[C@@H](c1ccc(NC2Cc3ccccc3C2(C)C)cn1)C(F)(F)F` (single isomer, unassigned) [Example 155] belongs 0.18 µM; to `CN(C(=O)CC#N)[C@@H](c1ccc(NC2Cc3ccc(Cl)c(Cl)c3C2)cn1)C(F)(F)F` (single isomer, unassigned) [Example 349], 1.04 µM.
The molecule `CN(C(=O)[C@H]1C[C@@H](O)C1)[C@@H](c1ccc(NC2Cc3ccc(Cl)c(F)c3C2)cn1)C(F)(F)F` (single isomer, unassigned) [Example 382] displayed an IC50 of 0.095 µM.
For `CN(C(=O)C1CCS(=O)(=O)CC1)[C@@H](c1ccc(NC2Cc3c(F)ccc(F)c3C2)cn1)C(F)(F)F` [Example 273, (S)—N-(1-(5-((4,7-Difluoro-2,3-dihydro-1H-inden-2-yl)amino)pyridin-2-yl)-2,2,2-trifluoroethyl)-N-methyltetrahydro-2H-thiopyran-4-carboxamide 1,1-dioxide], the IC50 was 0.46 µM.
